Here are results for 2 compounds from patent US20250090510A1, “eIF4G1-eIF1 INHIBITORS AND USE THEREOF” (YEDA RESEARCH AND DEVELOPMENT CO. LTD., priority 2022, published 2025).

One experiment relates to HEK293T cells. As to the kind of experiment: Polysome profile by sucrose gradient sedimentation. Particulars: i14G1-12 10 μM, 3 h; for 80S monoribosomes in polysome profile: i14G1-10 20 μM. Format: cell-based, human. The protocol:
FIGS. 3A-F: i14G1-10 and i14G1-12 inhibit mRNA translation and sensitize cell survival of eIF4G1 and eIF1 depleted cells. (3A) In-vitro translation using rabbit reticulocyte lysate which was pre-incubated with different concentrations of i14G1-10 or i14G1-12 for 10 minutes followed by the addition of capped firefly luciferase mRNA. After 90 minutes at 30° C., the luminescence signal was measured and the IC50 was calculated. The data represents mean±SEM of 6 independent repeats. (3B) HEK293T cells were treated with DMSO (vehicle control), and sub-cytotoxic concentrations of i14G1-10 (20 μM) and i14G1-12 (10 μM) for 3h. Cell lysates were then subjected to sucrose gradient sedimentation to obtain polysome profiles. (3C) HEK293T cells were treated with the indicated concentrations of i14G1-10 and i14G-12 for 3 h, followed by the addition of puromycin (10 μg/ml) for 5 minutes, after which cells were lysed and analyzed by western blot using an anti-puromycin antibody and anti-GAPDH antibody that serves as a loading control. The graph represents the mean±SEM chemiluminescence signal intensity of puromycin labeling normalized to GAPDH of 3 independent experiments. The calculated IC-50 is shown. (3D) HEK293T cells were transfected with either control or eIF4G1 siRNA in the absence or presence of eIF4G1 expression plasmid. As the eIF4G1 siRNA pool is directed against the 3′UTR, which is absent from the eIF4G1 expression plasmid, the exogenous eIF4G1 is resistant to the siRNA. […] The calculated IC-50 is shown. (3E) The graphs represent cell viability of the indicated cell lines in the presence of increasing concentrations of i14G1-10 and i14G1, analyzed by Luminescent Cell Viability Assay. […]
Polysome profile and real-time PCR. […] Gradients were fractionated with continuous absorbance measurement at 254 nm using ISCO absorbance detector UA-6. Fractions were pooled according to their absorbance into Free, Light, and Heavy ribosomal fractions. […]

Experiment [1] concerns 5′UTR length-dependent translation in HEK293T cells. As to the kind of experiment: Firefly luciferase reporters with long (354 nt) and short (111 nt) 5′UTR. Format: cell-based, human. Particulars: 5 μM, 16 h. The protocol:
FIGS. 5A-D: 5′UTR length-dependent translational control by the eIF1-eIF4G1. […] The asterisks denote a statistically significant difference. **p<0.01, ****p<0.0001. (5B) A scheme of the firefly reporter genes that are driven by long (354 nt) and short (111 nt) 5′ UTR length, is shown on the top. HEK293T cells were transfected with these reporter genes. After 4 h, transfected cells were treated with DMSO, i14G1-10 (5 μM), or i14G1-12 (5 μM) for 16 h and analyzed for firefly luciferase activities. The graph presents the normalized luminescence activity of the long 5′UTR and the short 5′UTR reporters in the indicated treatments. The data are shown as mean±SEM, n=6. The asterisks denote statistically significant difference compared to DMSO, according to Student's t-tests (one-tailed, paired). *p<0.05; **p<0.01. (5C-D) HEK293T cells were treated with DMSO, i14G1-10, and i14G1-12 for 3 h, lysed, and subjected to sucrose gradient sedimentation and fractionation. Fractions were pooled according to polysome profile as free (grey), light (blue), and heavy (yellow) polysomal fractions. cDNA was prepared from each fraction pool and real-time PCR was performed for the indicated TISU genes (5C) or histone genes (5D). The data are shown as mean±SEM, n=3. The asterisks denote statistically significant difference compared to DMSO, according to Student's t-tests (one-tailed, paired), *p<0.05; **p<0.01.
Since both eIF1 and eIF4G1 are important for scanning, the relationship between the translational effects of the inhibitors and the 5′UTR length was examined. […] To investigate further the link between the effect of the drug and 5′UTR length, we used two firefly luciferase reporters we used that differ only in their 5′UTR length: a short 5′UTR with 111 nucleotides and a long 5′UTR with 354 nucleotides. […] These findings confirm the inhibitory effect of these compounds on the scanning promoting activity of the eIF1-eIF4G1 complex.

For the compound `O=C(/C=C/Sc1ccc(C(F)(F)F)cn1)c1ccccc1` [i14G1-10], the “80S monoribosomes in polysome profile” value in the experiment with HEK293T cells is on record as “increase in 80S monoribosomes”. Moreover, in experiment [1], the “luciferase reporter expression driven by the longer 5′UTR (354 nucleotides)” value is “significantly decreased” and the “luciferase reporter expression driven by the shorter 5′UTR (111 nucleotides)” value is “did not affect”.

With `Cn1ccnc1S/C(=C/C=C(C#N)C#N)c1ccc(Cl)cc1` [i14G1-12], in the experiment on HEK293T cells, the “80S monoribosomes in polysome profile” value is on record as “increase in 80S monoribosomes” and the “heavy polysomal fractions in polysome profile” value is “substantial decrease in the heavy polysomal fractions”. Moreover, in experiment [1], the “luciferase reporter expression driven by the longer 5′UTR (354 nucleotides)” value is reported as “significantly decreased” and the “luciferase reporter expression driven by the shorter 5′UTR (111 nucleotides)” value was “did not affect”.
